Test results as given in ChEMBL document CHEMBL4325853, “Design, synthesis and antibacterial evaluation of 2,4-disubstituted-6-thiophenyl-pyrimidines” (Eur J Med Chem, 2019).
In brackets after ≈: the same amount, converted by molar mass.

Legend:
Assay type in all cases: functional
Staphylococcus aureus [1] = assay: Antibacterial activity against methicillin-resistant Staphylococcus aureus isolate 7183 after 18 hrs by broth microdilution method; settings: isolate 7183, 18 h
Staphylococcus aureus [2] = assay: Antibacterial activity against methicillin-resistant Staphylococcus aureus isolate 7587 after 18 hrs by broth microdilution method; settings: isolate 7587, 18 h
Staphylococcus aureus [3] = assay: Antibacterial activity against methicillin-resistant Staphylococcus aureus isolate 7844 after 18 hrs by broth microdilution method; settings: isolate 7844, 18 h
Staphylococcus aureus [4] = assay: Antibacterial activity against methicillin-resistant Staphylococcus aureus isolate 1651 after 18 hrs by broth microdilution method; settings: isolate 1651, 18 h
Enterococcus faecalis [5] = assay: Antibacterial activity against Enterococcus faecalis ATCC 29212 after 18 hrs by broth microdilution method; settings: ATCC 29212, 18 h
Staphylococcus aureus [6] = assay: Antibacterial activity against methicillin-resistant Staphylococcus aureus isolate 7813 after 18 hrs by broth microdilution method; settings: isolate 7813, 18 h
Staphylococcus aureus [7] = assay: Antibacterial activity against methicillin-resistant Staphylococcus aureus isolate 7807 after 18 hrs by broth microdilution method; settings: isolate 7807, 18 h
Enterococcus faecalis [8] = assay: Antibacterial activity against vancomycin-resistant Enterococcus faecalis ATCC 700221 after 18 hrs by broth microdilution method; settings: ATCC 700221, 18 h
Staphylococcus aureus [9] = assay: Antibacterial activity against methicillin-resistant Staphylococcus aureus isolate 3096 after 18 hrs by broth microdilution method; settings: isolate 3096, 18 h
Staphylococcus aureus [10] = assay: Antibacterial activity against methicillin-resistant Staphylococcus aureus isolate 7717 after 18 hrs by broth microdilution method; settings: isolate 7717, 18 h
Staphylococcus aureus [11] = assay: Antibacterial activity against methicillin-resistant Staphylococcus aureus isolate 7943 after 18 hrs by broth microdilution method; settings: isolate 7943, 18 h
Staphylococcus aureus [12] = assay: Antibacterial activity against methicillin-resistant Staphylococcus aureus isolate 5056 after 18 hrs by broth microdilution method; settings: isolate 5056, 18 h
Staphylococcus aureus [13] = assay: Antibacterial activity against methicillin-resistant Staphylococcus aureus isolate 6334 after 18 hrs by broth microdilution method; settings: isolate 6334, 18 h
Staphylococcus aureus [14] = assay: Antibacterial activity against methicillin-resistant Staphylococcus aureus isolate 7682 after 18 hrs by broth microdilution method; settings: isolate 7682, 18 h
Staphylococcus aureus [15] = assay: Antibacterial activity against methicillin-resistant Staphylococcus aureus isolate 7947 after 18 hrs by broth microdilution method; settings: isolate 7947, 18 h
Staphylococcus aureus [16] = assay: Antibacterial activity against methicillin-resistant Staphylococcus aureus isolate 8078 after 18 hrs by broth microdilution method; settings: isolate 8078, 18 h
[17] = system: Staphylococcus epidermidis; assay: Antibacterial activity against Staphylococcus epidermidis ATCC 12228 after 18 hrs by broth microdilution method; settings: ATCC 12228, 18 h
Staphylococcus aureus [18] = assay: Antibacterial activity against methicillin-resistant Staphylococcus aureus isolate 1708 after 18 hrs by broth microdilution method; settings: isolate 1708, 18 h
Staphylococcus aureus [19] = assay: Antibacterial activity against methicillin-resistant Staphylococcus aureus ATCC BAA1720 after 18 hrs by broth microdilution method; settings: ATCC BAA1720, 18 h
Staphylococcus aureus [20] = assay: Antibacterial activity against methicillin-resistant Staphylococcus aureus ATCC 43300 after 18 hrs by broth microdilution method; settings: ATCC 43300, 18 h
Staphylococcus aureus [21] = assay: Antibacterial activity against methicillin-resistant Staphylococcus aureus isolate 7434 after 18 hrs by broth microdilution method; settings: isolate 7434, 18 h
Staphylococcus aureus [22] = assay: Antibacterial activity against methicillin-resistant Staphylococcus aureus isolate 2931 after 18 hrs by broth microdilution method; settings: isolate 2931, 18 h
Bacillus subtilis = assay: Antibacterial activity against Bacillus subtilis 168 after 18 hrs by broth microdilution method; settings: subsp. subtilis str. 168, 18 h
Staphylococcus aureus [23] = assay: Antibacterial activity against methicillin-resistant Staphylococcus aureus isolate 3123 after 18 hrs by broth microdilution method; settings: isolate 3123, 18 h
Staphylococcus aureus [24] = assay: Antibacterial activity against methicillin-resistant Staphylococcus aureus isolate 2491 after 18 hrs by broth microdilution method; settings: isolate 2491, 18 h
Staphylococcus aureus [25] = assay: Antibacterial activity against methicillin-resistant Staphylococcus aureus isolate 4127 after 18 hrs by broth microdilution method; settings: isolate 4127, 18 h
Staphylococcus aureus [26] = assay: Antibacterial activity against methicillin-resistant Staphylococcus aureus isolate 1947 after 18 hrs by broth microdilution method; settings: isolate 1947, 18 h
Staphylococcus aureus [27] = assay: Antibacterial activity against methicillin-resistant Staphylococcus aureus isolate 2350 after 18 hrs by broth microdilution method; settings: isolate 2350, 18 h
Staphylococcus aureus [28] = assay: Antibacterial activity against methicillin-resistant Staphylococcus aureus ATCC BAA41 after 18 hrs by broth microdilution method; settings: ATCC BAA41, 18 h
Enterococcus faecium = assay: Antibacterial activity against Enterococcus faecium ATCC 49624 after 18 hrs by broth microdilution method; settings: ATCC 49624, 18 h
Staphylococcus aureus [29] = assay: Antibacterial activity against methicillin-resistant Staphylococcus aureus isolate 7536 after 18 hrs by broth microdilution method; settings: isolate 7536, 18 h
Staphylococcus aureus [30] = assay: Antibacterial activity against methicillin-resistant Staphylococcus aureus isolate 4955 after 18 hrs by broth microdilution method; settings: isolate 4955, 18 h
Staphylococcus aureus [31] = assay: Antibacterial activity against methicillin-resistant Staphylococcus aureus isolate 7972 after 18 hrs by broth microdilution method; settings: isolate 7972, 18 h

What does the source list for CN[C@H](CC(C)C)C(=O)N[C@H]1C(=O)N[C@@H](CC(N)=O)C(=O)N[C@H]2C(=O)N[C@H]3C(=O)N[C@H](C(=O)N[C@H](C(=O)O)c4cc(O)cc(O)c4-c4cc3ccc4O)[C@H](O)c3ccc(c(Cl)c3)Oc3cc2cc(c3O[C@@H]2O[C@H](CO)[C@@H](O)[C@H](O)[C@H]2O[C@H]2C[C@](C)(N)[C@H](O)[C@H](C)O2)Oc2ccc(cc2Cl)[C@H]1O [VANCOMYCIN]?
MIC90 (Staphylococcus aureus [1]): 2 µg/mL (≈ 1.38 µM); MIC90 (Staphylococcus aureus [2]): 2 µg/mL (≈ 1.38 µM); MIC90 (Staphylococcus aureus [3]): 1 µg/mL (≈ 0.69 µM); MIC90 (Staphylococcus aureus [4]): 2 µg/mL (≈ 1.38 µM); MIC90 (Enterococcus faecalis [5]): > 64 µg/mL; MIC90 (Staphylococcus aureus [6]): 1 µg/mL (≈ 0.69 µM); MIC90 (Staphylococcus aureus [7]): 2 µg/mL (≈ 1.38 µM); MIC90 (Enterococcus faecalis [8]): > 64 µg/mL; MIC90 (Staphylococcus aureus [9]): 1 µg/mL (≈ 0.69 µM); MIC90 (Staphylococcus aureus [10]): 1 µg/mL (≈ 0.69 µM); MIC90 (Staphylococcus aureus [11]): 2 µg/mL (≈ 1.38 µM); MIC90 (Staphylococcus aureus [12]): 2 µg/mL (≈ 1.38 µM); MIC90 (Staphylococcus aureus [13]): 1 µg/mL (≈ 0.69 µM); MIC90 (Staphylococcus aureus [14]): 1 µg/mL (≈ 0.69 µM); MIC90 (Staphylococcus aureus [15]): 1 µg/mL (≈ 0.69 µM); MIC90 (Staphylococcus aureus [16]): 2 µg/mL (≈ 1.38 µM); MIC90 [17]: 0.5 µg/mL (≈ 0.345 µM); MIC90 (Staphylococcus aureus [18]): 1 µg/mL (≈ 0.69 µM); MIC90 (Staphylococcus aureus [19]): 2 µg/mL (≈ 1.38 µM); MIC90 (Staphylococcus aureus [20]): 2 µg/mL (≈ 1.38 µM); MIC90 (Staphylococcus aureus [21]): 1 µg/mL (≈ 0.69 µM); MIC90 (Staphylococcus aureus [22]): 1 µg/mL (≈ 0.69 µM); MIC90 (Bacillus subtilis): 1 µg/mL (≈ 0.69 µM); MIC90 (Staphylococcus aureus [23]): 1 µg/mL (≈ 0.69 µM); MIC90 (Staphylococcus aureus [24]): 2 µg/mL (≈ 1.38 µM); MIC90 (Staphylococcus aureus [25]): 1 µg/mL (≈ 0.69 µM); MIC90 (Staphylococcus aureus [26]): 2 µg/mL (≈ 1.38 µM); MIC90 (Staphylococcus aureus [27]): 1 µg/mL (≈ 0.69 µM); MIC90 (Staphylococcus aureus [28]): 2 µg/mL (≈ 1.38 µM); MIC90 (Enterococcus faecium): 2 µg/mL (≈ 1.38 µM); MIC90 (Staphylococcus aureus [29]): 1 µg/mL (≈ 0.69 µM); MIC90 (Staphylococcus aureus [30]): 1 µg/mL (≈ 0.69 µM); MIC90 (Staphylococcus aureus [31]): 1 µg/mL (≈ 0.69 µM)
